Assays:
A549 [1] = test: Induction in apoptosis in human A549 cells overexpressing c-MET assessed as viable cells at 1 uM incubated for 24 hrs by Annexin V-FITC/Propidium Iodide staining based flow cytometry analysis (reference value: 81.92 %); format: functional; settings: read-out: Activity
A549 [2] = test: Induction in apoptosis in human A549 cells overexpressing c-MET assessed as early apoptotic cells at 1 uM incubated for 24 hrs by Annexin V-FITC/Propidium Iodide staining based flow cytometry analysis (reference value: 7.27 %); format: functional
A549 [3] = test: Induction in apoptosis in human A549 cells overexpressing c-MET assessed as late apoptotic cells at 1 uM incubated for 24 hrs by Annexin V-FITC/Propidium Iodide staining based flow cytometry analysis (reference value: 7.59 %); format: functional
A549 [4] = test: Induction in apoptosis in human A549 cells overexpressing c-MET assessed as necrotic cells at 1 uM incubated for 24 hrs by Annexin V-FITC/Propidium Iodide staining based flow cytometry analysis (reference value: 3.22 %); format: functional
NCI-H1975 [5] = test: Induction in apoptosis in human NCI-H1975 cells assessed as viable cells at 1 uM incubated for 24 hrs by Annexin V-FITC/Propidium Iodide staining based flow cytometry analysis (reference value: 91.58 %); format: functional; settings: read-out: Activity
NCI-H1975 [6] = test: Induction in apoptosis in human NCI-H1975 cells assessed as early apoptotic cells at 1 uM incubated for 24 hrs by Annexin V-FITC/Propidium Iodide staining based flow cytometry analysis (reference value: 2.54 %); format: functional
NCI-H1975 [7] = test: Induction in apoptosis in human NCI-H1975 cells assessed as late apoptotic cells at 1 uM incubated for 24 hrs by Annexin V-FITC/Propidium Iodide staining based flow cytometry analysis (reference value: 4.46 %); format: functional
NCI-H1975 [8] = test: Induction in apoptosis in human NCI-H1975 cells assessed as necrotic cells at 1 uM incubated for 24 hrs by Annexin V-FITC/Propidium Iodide staining based flow cytometry analysis (reference value: 1.42 %); format: functional
[9] = Induction in apoptosis in human L02 cells assessed as viable cells at 1 uM incubated for 24 hrs by Annexin V-FITC/Propidium Iodide staining based flow cytometry analysis (reference value: 92.75 %); format: toxicity, cell-based; settings: read-out: Activity
L02 [10] = test: Induction in apoptosis in human L02 cells assessed as early apoptotic cells at 1 uM incubated for 24 hrs by Annexin V-FITC/Propidium Iodide staining based flow cytometry analysis (reference value: 0.26 %); format: toxicity, cell-based; settings: l02, 24 h
L02 [11] = test: Induction in apoptosis in human L02 cells assessed as late apoptotic cells at 1 uM incubated for 24 hrs by Annexin V-FITC/Propidium Iodide staining based flow cytometry analysis (reference value: 0.36 %); format: toxicity, cell-based; settings: l02, 24 h
L02 [12] = test: Induction in apoptosis in human L02 cells assessed as necrotic cells at 1 uM incubated for 24 hrs by Annexin V-FITC/Propidium Iodide staining based flow cytometry analysis (reference value: 6.63 %); format: toxicity, cell-based; settings: l02, 24 h
A549 [13] = test: Induction of cell cycle arrest in human A549 cells overexpressing c-MET assessed as accumulation of cells at G1/G0 phase at 1 uM incubated for 24 hrs by RNase A/propidium iodide staining based flow cytometric analysis (reference value: 49.24 %); format: functional
A549 [14] = test: Induction of cell cycle arrest in human A549 cells overexpressing c-MET assessed as accumulation of cells at S phase at 1 uM incubated for 24 hrs by RNase A/propidium iodide staining based flow cytometric analysis (reference value: 37.87 %); format: functional
[15] = Hemolytic activity in sheep erythrocytes at 64 ug/ml incubated for 2 hr by UV spectrophotometer relative to control; format: toxicity, cell-based, Ovis aries, Erythrocyte; settings: at 64 µg/mL, read-out: Activity
A549 [16] = test: Antiproliferative activity against human A549 cells overexpressing c-Met and EGFR assessed as reduction in cell viability incubated for 72 hrs by MTT assay; format: functional, cell-based; settings: A549, 72 h
NCI-H1975 [17] = test: Antiproliferative activity against human NCI-H1975 cells overexpressing c-Met and EGFR assessed as reduction in cell viability incubated for 72 hrs by MTT assay; format: functional, cell-based; settings: NCI-H1975, 72 h
PC-9 = test: Antiproliferative activity against human PC-9 cells overexpressing c-Met and EGFR assessed as reduction in cell viability incubated for 72 hrs by MTT assay; format: functional, cell-based; settings: PC-9, 72 h
[18] = biological target: Epidermal growth factor receptor (Homo sapiens, UniProt P00533); test: biochemical
Description: Inhibition of N-terminal GST tagged human recombinant EGFR (695 to end residues) expressed in baculovirus infected Sf9 cells using Poly (4:1 Glu, Tyr) as substrate incubated for 60 mins in presence of ATP by ADP-Glo luminescent assay

[19] = biological target: Epidermal growth factor receptor (Homo sapiens, UniProt P00533, L858R); test: biochemical
[20] = biological target: Hepatocyte growth factor receptor (Homo sapiens, UniProt P08581); test: biochemical
Description: Inhibition of N-terminal GST tagged human recombinant c-Met (956 to end residues) expressed in baculovirus infected Sf9 cells using Poly (4:1 Glu, Tyr) as substrate incubated for 60 mins in presence of ATP by ADP-Glo luminescent assay

Homo sapiens = species on record: Homo sapiens; test: Inhibition of EGFR T790/C797S mutant (unknown origin) at 10 uM relative to control

Hepatocyte growth factor receptor, sequence (P08581 whole entry): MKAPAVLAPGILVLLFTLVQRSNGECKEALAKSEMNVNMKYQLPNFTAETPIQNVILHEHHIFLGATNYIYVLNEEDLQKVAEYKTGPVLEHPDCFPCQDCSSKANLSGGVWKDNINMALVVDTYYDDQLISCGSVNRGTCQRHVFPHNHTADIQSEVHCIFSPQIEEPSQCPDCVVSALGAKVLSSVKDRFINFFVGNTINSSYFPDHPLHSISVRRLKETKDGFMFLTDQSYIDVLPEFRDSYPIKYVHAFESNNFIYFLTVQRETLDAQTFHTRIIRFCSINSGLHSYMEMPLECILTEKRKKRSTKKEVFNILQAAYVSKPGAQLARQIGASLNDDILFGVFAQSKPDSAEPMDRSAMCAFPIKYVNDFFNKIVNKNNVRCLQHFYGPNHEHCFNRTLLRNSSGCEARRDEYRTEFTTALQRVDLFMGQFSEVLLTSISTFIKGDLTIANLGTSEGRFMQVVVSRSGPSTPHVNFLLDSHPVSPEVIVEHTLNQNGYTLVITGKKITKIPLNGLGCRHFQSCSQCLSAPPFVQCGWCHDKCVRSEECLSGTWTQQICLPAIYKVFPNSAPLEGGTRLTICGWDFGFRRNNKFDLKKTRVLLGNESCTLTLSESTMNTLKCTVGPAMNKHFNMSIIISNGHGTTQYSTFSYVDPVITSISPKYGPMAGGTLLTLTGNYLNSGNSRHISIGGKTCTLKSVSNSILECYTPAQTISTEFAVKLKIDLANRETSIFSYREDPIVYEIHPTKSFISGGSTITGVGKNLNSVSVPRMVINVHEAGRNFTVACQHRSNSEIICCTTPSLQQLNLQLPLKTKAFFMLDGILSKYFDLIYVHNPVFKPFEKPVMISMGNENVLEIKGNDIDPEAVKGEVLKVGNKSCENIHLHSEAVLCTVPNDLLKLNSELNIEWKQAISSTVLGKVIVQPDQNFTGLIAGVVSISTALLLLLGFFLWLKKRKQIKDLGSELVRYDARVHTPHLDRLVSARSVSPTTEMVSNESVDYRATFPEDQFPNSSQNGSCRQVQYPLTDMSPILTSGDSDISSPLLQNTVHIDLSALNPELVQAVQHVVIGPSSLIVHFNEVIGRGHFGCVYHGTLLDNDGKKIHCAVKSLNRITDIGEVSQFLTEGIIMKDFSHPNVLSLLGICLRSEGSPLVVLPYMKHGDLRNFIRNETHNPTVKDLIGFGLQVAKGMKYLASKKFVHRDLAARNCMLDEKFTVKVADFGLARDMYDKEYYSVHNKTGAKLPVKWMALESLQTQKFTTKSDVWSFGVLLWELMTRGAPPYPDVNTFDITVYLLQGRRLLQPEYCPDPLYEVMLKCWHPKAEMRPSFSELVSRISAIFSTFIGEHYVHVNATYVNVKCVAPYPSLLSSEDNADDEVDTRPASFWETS
Epidermal growth factor receptor (Homo sapiens, UniProt P00533, L858R), sequence (P00533 25-1210 L858R limits assumed): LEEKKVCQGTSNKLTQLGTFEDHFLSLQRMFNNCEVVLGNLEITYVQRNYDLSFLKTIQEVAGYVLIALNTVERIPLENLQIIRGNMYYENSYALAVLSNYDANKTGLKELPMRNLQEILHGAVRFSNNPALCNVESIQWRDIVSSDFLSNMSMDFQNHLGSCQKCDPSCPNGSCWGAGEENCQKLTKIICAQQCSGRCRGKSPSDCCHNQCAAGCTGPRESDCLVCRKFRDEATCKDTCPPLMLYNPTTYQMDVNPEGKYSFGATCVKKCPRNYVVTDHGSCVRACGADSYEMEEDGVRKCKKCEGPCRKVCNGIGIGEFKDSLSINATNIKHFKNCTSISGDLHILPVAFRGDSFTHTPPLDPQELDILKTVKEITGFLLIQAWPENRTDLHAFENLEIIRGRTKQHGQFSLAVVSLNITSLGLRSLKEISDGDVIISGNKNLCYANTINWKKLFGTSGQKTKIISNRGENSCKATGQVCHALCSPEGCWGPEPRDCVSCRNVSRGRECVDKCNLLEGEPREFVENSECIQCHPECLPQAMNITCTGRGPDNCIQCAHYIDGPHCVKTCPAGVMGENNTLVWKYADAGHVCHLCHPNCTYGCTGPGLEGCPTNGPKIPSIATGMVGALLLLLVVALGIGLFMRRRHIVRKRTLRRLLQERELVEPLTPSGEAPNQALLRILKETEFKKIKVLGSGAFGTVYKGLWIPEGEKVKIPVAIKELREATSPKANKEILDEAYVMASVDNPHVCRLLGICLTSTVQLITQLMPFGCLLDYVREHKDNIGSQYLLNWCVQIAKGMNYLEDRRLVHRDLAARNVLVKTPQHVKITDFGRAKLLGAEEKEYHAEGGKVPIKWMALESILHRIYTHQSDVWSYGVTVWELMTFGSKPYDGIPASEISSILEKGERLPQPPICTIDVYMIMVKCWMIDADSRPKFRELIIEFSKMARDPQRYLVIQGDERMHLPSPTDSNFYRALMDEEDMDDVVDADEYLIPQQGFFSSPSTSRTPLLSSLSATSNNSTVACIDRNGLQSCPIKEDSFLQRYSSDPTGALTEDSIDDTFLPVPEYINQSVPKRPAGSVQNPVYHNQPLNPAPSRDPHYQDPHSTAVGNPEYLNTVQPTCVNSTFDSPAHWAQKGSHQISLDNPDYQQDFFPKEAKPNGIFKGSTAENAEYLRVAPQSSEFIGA
Epidermal growth factor receptor (Homo sapiens, UniProt P00533), sequence (P00533 whole entry): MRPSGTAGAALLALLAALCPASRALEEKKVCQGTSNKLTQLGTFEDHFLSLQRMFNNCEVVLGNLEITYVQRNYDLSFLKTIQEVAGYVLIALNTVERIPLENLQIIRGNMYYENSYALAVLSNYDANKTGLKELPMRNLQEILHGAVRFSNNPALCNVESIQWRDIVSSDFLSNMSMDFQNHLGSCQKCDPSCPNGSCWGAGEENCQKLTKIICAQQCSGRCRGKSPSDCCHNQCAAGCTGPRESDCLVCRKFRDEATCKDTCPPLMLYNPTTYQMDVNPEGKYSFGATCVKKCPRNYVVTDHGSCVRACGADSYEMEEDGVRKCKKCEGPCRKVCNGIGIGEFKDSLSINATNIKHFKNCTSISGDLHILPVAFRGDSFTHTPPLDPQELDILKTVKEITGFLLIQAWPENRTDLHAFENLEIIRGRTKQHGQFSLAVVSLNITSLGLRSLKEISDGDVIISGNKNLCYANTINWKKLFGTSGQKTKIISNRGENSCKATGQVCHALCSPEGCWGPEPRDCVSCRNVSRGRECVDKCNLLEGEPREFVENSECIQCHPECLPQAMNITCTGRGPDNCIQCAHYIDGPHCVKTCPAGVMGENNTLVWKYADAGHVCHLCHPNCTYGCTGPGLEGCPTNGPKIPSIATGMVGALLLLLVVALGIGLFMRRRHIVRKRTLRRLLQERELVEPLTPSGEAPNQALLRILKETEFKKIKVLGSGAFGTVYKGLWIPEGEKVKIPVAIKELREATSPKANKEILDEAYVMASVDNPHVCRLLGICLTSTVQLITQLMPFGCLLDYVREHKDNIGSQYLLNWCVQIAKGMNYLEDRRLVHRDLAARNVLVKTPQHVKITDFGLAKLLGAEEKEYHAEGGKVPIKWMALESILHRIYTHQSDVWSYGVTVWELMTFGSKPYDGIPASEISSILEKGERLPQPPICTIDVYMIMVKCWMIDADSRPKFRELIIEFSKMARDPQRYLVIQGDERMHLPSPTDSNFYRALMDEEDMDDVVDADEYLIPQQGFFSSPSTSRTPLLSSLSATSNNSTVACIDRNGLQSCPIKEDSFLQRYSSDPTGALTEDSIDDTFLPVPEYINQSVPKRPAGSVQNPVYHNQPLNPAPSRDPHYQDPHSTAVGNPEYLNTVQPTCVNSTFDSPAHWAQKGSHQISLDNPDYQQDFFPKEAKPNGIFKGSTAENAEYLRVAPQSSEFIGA

| SMILES | IC50 (A549 [16]) [µM] | IC50 (NCI-H1975 [17]) [µM] | IC50 (PC-9) [µM] | IC50 [18] [µM] | IC50 [19] [µM] | IC50 [20] [µM] | also measured |
| --- | --- | --- | --- | --- | --- | --- | --- |
| CN(C)C/C=C/C(=O)Nc1cc2c(Nc3ccc(F)c(Cl)c3)ncnc2cc1O[C@H]1CCOC1 [AFATINIB] |  |  |  |  |  |  | viability at 1 µM (A549 [1]): 72.6%; Activity (A549 [2]): 9.36%; Activity (A549 [3]): 12.21%; Activity (A549 [4]): 5.8%; viability at 1 µM (NCI-H1975 [5]): 89.7%; Activity (NCI-H1975 [6]): 2.21%; Activity (NCI-H1975 [7]): 6.17%; Activity (NCI-H1975 [8]): 1.88%; viability at 24 h, 1 µM [9]: 95.8%; Activity (L02 [10]): 0.19%; Activity (L02 [11]): 0.26%; Activity (L02 [12]): 3.78%; Activity (A549 [13]): 52.24%; Activity (A549 [14]): 36.86%; hemolysis at 2 h, 64 ug/ml [15]: < 5% |
| C=CC(=O)Nc1cc2c(Oc3ccc(NC(=O)CCCc4ccc(OC)cc4)cc3F)ncnc2cc1OC | 3.12 | 2.1 | 19.4 | 0.567 | 0.693 | 0.348 |  |
| CCCCC(=O)Nc1cc2c(Oc3ccc(NC(=O)CCCc4ccc(C)cc4)cc3F)ncnc2cc1OC | 6.22 | > 50 | > 50 | > 10 | > 10 | 2 |  |
| COc1cc2c(Oc3ccc(NC(=O)C4(C(=O)Nc5ccc(F)cc5)CC4)cc3F)ccnc2cc1OCCCN1CCOCC1 |  |  |  |  |  |  | inhibition (Homo sapiens): < 50% |
| C/C=C/C(=O)Nc1cc2c(Oc3ccc(NC(=O)c4c(-c5c(Cl)cccc5Cl)noc4C)cc3F)cccc2cc1OC | 19.5 | 17.2 | 6.12 | > 10 | > 10 | 3.38 |  |
| C=CC(=O)Nc1cc2c(Oc3ccc(NC(=O)NCCc4csc(Br)c4)cc3F)ncnc2cc1OC | 4.08 | 6.07 | 3.64 | 2.07 | 1.51 | 0.253 |  |
| C=CC(=O)Nc1cc2c(Oc3ccc(NC(=O)CCCc4ccc(C)cc4)cc3F)ncnc2cc1OC | 5.21 | 0.43 | 7.67 | 1.79 | 1.47 | 0.394 |  |
| CCC(=O)Nc1cc2c(Oc3ccc(NC(=O)NCCc4csc(Br)c4)cc3F)ncnc2cc1OC | 8.42 | 11.1 | 4.97 | > 10 | > 10 | 0.247 |  |
| CCC(=O)Nc1cc2c(Oc3ccc(NC(=O)c4sc(-c5ccccc5)nc4C)cc3F)cccc2cc1OC | 2.35 | 3.56 | 2.94 | 3.9 | > 10 | 0.0706 |  |

From ChEMBL document CHEMBL5537122, “Design, synthesis, and biological evaluation of 4-(2-fluorophenoxy)-7-methoxyquinazoline derivatives as dual EGFR/c-Met inhibitors for the treatment of NSCLC” (Eur J Med Chem, 2024)
